Values of other authors, collected in US20090175824A1, “Peptides for the treatment of HCV infections” (priority 2007, published 2009).

Conditions: patients with hepatitis C

CC(C)(C)NC(=O)NC(C(=O)N1CC2C(C1C(=O)NC(CC1CCC1)C(=O)C(N)=O)C2(C)C)C(C)(C)C (centres unmarked) [boceprevir, N-(4-amino-1-cyclobutyl-3,4-dioxobutan-2-yl)-3-(2-(3-tert-butylureido)-3,3-dimethylbutanoyl)-6,6-dimethyl-3-azabicyclo[3.1.0]hexane-2-carboxamide]
adverse events: infrequent and included headache, fever and myalgia
tolerability: well-tolerated
